Data published in patent US9173882B2, “Polycyclic heteroaryl substituted triazoles useful as Axl inhibitors” (Rigel Pharmaceuticals, Inc., priority 2008, dated 2015).

Molecular target: T1, Axl (Homo sapiens, UniProt P30530)
T1 construct: endogenous in cells; host or cells: HeLa cells
T1 sequence (P30530 26-894): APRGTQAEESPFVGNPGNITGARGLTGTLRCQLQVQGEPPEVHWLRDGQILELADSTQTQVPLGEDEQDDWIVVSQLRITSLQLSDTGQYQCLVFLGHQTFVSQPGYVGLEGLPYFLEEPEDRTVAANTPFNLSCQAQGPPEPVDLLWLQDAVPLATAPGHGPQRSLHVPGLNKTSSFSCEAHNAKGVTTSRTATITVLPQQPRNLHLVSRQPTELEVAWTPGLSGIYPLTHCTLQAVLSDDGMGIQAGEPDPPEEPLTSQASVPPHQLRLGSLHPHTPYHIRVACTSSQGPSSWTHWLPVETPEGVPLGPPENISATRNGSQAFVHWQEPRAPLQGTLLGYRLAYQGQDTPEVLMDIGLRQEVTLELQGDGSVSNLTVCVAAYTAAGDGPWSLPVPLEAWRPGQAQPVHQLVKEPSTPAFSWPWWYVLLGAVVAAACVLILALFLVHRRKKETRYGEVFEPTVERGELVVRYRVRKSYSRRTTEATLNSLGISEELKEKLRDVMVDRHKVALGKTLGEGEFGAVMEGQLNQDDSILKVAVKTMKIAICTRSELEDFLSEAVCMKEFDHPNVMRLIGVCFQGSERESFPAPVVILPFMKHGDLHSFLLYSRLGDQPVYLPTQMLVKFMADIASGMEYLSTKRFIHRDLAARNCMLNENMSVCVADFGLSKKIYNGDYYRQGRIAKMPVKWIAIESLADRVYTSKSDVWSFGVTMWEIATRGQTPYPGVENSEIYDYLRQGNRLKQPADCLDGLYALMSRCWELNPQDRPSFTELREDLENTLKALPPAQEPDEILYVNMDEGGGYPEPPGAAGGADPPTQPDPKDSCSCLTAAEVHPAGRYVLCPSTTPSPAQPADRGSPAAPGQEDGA
Experiment: Phospho-Akt in-cell Western assay
Assay type: cell-based
Settings: Hela cells, stimulated by Axl-antibody cross-linking, phospho-Akt chemiluminescence; Table 1, formula (Ia)
Procedure: Phospho-Akt in-Cell Western Assay
The compounds of the invention were tested in the following assay for their ability to inhibit Axl activity.
• Cell culture plate: 96 well assay plate (Corning 3610), white, clear bottom, tissue-culture treated. • Cells: Hela cells. • Starvation medium: For Axl stimulation: 0.5% FCS (fetal calf serum) in DMEM, plus Axl/Fc (extracellular domain of AXL fused to imunoglobulin Fc region) (R&D, 154-AL) 500 ng/mL. • For EGF (epidermal growth factor) stimulation: 0.5% FCS in DMEM (Dulbecco's modified Eagles medium). • Poly-L-Lysine 0.01% solution (the working solution): 10 μg/ml, dilute In PBS (phosphate buffered saline). • Axl antibody cross-linking: • 1st: Mouse anti-Axl (R&D, MAB154). • 2nd: Biotin-SP-conjugated AffiniPure goat anti-mouse IgG (H+L) (Jackson ImmunoResearch #115-065-003). • Fixing buffer: 4% formaldehyde in PBS. • Wash buffer: 0.1% TritonX-100 in PBS. • Quenching buffer: 3% H2O2, 0.1% Azide in wash buffer, Azide and hydrogen peroxide (H2O2) are added fresh. • Blocking buffer: 5% BSA in TBST (tris buffered saline plus 0.1% Tween 20). • Primary antibody: Rabbit anti-human Phospho-Akt antibody (Cell Signaling 9271): 1×250 diluted in blocking buffer. • Secondary antibody: HRP (horse radish peroxidase)-conjugated Goat anti-Rabbit secondary, stock solution: Jackson ImmunoResearch (Goat anti-Rabbit HRP, #111-035-144) 1:1 diluted in glycerol, store at −20° C. The working solution: 1×2000 dilution of stock in blocking buffer. • Chemiluminescent working solution (Pierce, 37030): SuperSignal ELISA (enzyme linked immunosorbant assay) Pico Chemiluminescent substrate. • Crystal Violet solution: Stock: 2.5% Crystal violet in methanol, filtered and kept at ambient temperature. The working solution: dilute the stock 1:20 with PBS immediately before use. • 10% SDS: working solution: 5% SDS (sodium dodecylsulfate), diluted in PBS Methods: Day 1:
A 96 well TC (tissue culture treated) plate was coated with 10 μg/mL poly-L-Lysine at 37° C. for 30 min, washed twice with PBS, and air-dried for 5 minutes before cells were added. Hela cells were seeded at 10,000 cells/well and the cells were starved in 100 μL starvation medium containing Axl/Fc for 24 hrs.
The cells were pre-treated with test compounds by adding 100 μL of 2× test compound to the starvation medium on the cells. The cells were incubated at 37° C. for 1 hr before stimulation.
The cells were stimulated by Axl-antibody cross-linking as follows: A 5× 1st/2nd Axl antibody mixture was made (37.5 μg/mL 1st/100 μg/mL 2nd) in starvation medium and nutated at 4° C. with thorough mixing for 1-2 hours for clustering. The resulting mix was warmed to 37° C. 50 μL of 5× Axl 1st/2nd of antibody cluster was added to the cells and the cells were incubated at 37° C. for 5 min.
After 5 minutes stimulation, the plate was flicked to remove medium and the plate was tapped onto paper towels. Formaldehyde (4.0% in PBS, 100 μL) was added to fix the cells and the cells were incubated at ambient temperature for 20 min without shaking.
The cells were washed with a plate washer buffer to remove the formaldehyde solution. The plate was flicked to removed excess wash buffer and tapped onto paper towels. Quenching buffer (100 μL) was added to each well and the cells were incubated at ambient temperature for 20 minutes without shaking.
The cells were washed with a plate washer buffer to remove the quenching buffer. Blocking buffer (100 μL) was added and the cells were incubated at ambient temperature for at least an hour with gentle shaking.
The cells were washed with a plate washer buffer and diluted primary antibody (50 μL) was added to each well (blocking buffer was added to the negative control wells instead). The plates were incubated overnight at 4° C. with gentle shaking.
The wash buffer was removed, diluted secondary antibody (100 μL) was added, and the cells were incubated at ambient temperature for 1 hour with gentle shaking. […]

IC50 | SMILES
< 1000 nM | Nc1nc(Nc2ccc3c(c2)CC[C@@H](NCC2CCCC2)CC3)nn1-c1cc2c(nn1)-c1ccccc1CCC2 [Compound 36, 1-(6,7-dihydro-5H-benzo[6,7]cyclohepta[1,2-c]pyridazin-3-yl)-N^3-((7S)-7-((cyclopentylmethyl)amino)-6,7,8,9-tetrahydro-5H-benzo[7]annulene-2-yl)-1H-1,2,4-triazole-3,5-diamine]
10000 to 20000 nM | Nc1nc(Nc2ccc3c(c2)CC[C@@H](N(CC2CCCCC2)CC2CCCCC2)CC3)nn1-c1cc2c(nn1)-c1ccccc1CCC2 [Compound 27, 1-(6,7-dihydro-5H-benzo[6,7]cyclohepta[1,2-c]pyridazin-3-yl)-N^3-((7S)-7-(di(cyclohexylmethyl)amino)-6,7,8,9-tetrahydro-5H-benzo[7]annulene-2-yl)-1H-1,2,4-triazole-3,5-diamine]
< 1000 nM | CCN(CC)[C@H]1CCc2ccc(Nc3nc(N)n(-c4cc5c(nn4)-c4cccnc4CCC5)n3)cc2CC1 [Compound 48, 1-(6,7-dihydro-5H-pyrido[2′,3′:6,7]cyclohepta[1,2-c]pyridazin-3-yl)-N^3-((7S)-7-(diethylamino)-6,7,8,9-tetrahydro-5H-benzo[7]annulene-2-yl)-1H-1,2,4-triazole-3,5-diamine]
< 1000 nM | COC(=O)[C@H]1CCCN1C1CCc2ccc(Nc3nc(N)n(-c4cc5c(nn4)-c4ccccc4CCC5)n3)cc2CC1 (stereo partly drawn) [Compound 2, 1-(6,7-dihydro-5H-benzo[6,7]cyclohepta[1,2-c]pyridazin-3-yl)-N^3-(7-((2R)-2-(methoxycarbonyl)pyrrolidin-1-yl)-6,7,8,9-tetrahydro-5H-benzo[7]annulene-2-yl)-1H-1,2,4-triazole-3,5-diamine]
< 1000 nM | COC(=O)CN(C)C1CCc2ccc(Nc3nc(N)n(-c4cc5c(nn4)-c4ccccc4CCC5)n3)cc2CC1 (stereo not drawn) [Compound 4, 1-(6,7-dihydro-5H-benzo[6,7]cyclohepta[1,2-c]pyridazin-3-yl)-N^3-(7-((methoxycarbonylmethyl)(methyl)amino)-6,7,8,9-tetrahydro-5H-benzo[7]annulene-2-yl)-1H-1,2,4-triazole-3,5-diamine]
< 1000 nM | Nc1nc(Nc2ccc3c(c2)CC[C@@H](NC2CCC2)CC3)nn1-c1cc2c(nn1)-c1cccnc1CCC2 [Compound 52, 1-(6,7-dihydro-5H-pyrido[2′,3′:6,7]cyclohepta[1,2-c]pyridazin-3-yl)-N^3-((7S)-7-(cyclobutylamino)-6,7,8,9-tetrahydro-5H-benzo[7]annulene-2-yl)-1H-1,2,4-triazole-3,5-diamine]
< 1000 nM | Nc1nc(Nc2ccc3c(c2)CCC(N2CCC(C(=O)O)CC2)CC3)nn1-c1cc2c(nn1)-c1ccccc1CCC2 (stereo not drawn) [Compound 7, 1-(6,7-dihydro-5H-benzo[6,7]cyclohepta[1,2-c]pyridazin-3-yl)-N^3-(7-(4-(carboxy)piperidin-1-yl)-6,7,8,9-tetrahydro-5H-benzo[7]annulene-2-yl)-1H-1,2,4-triazole-3,5-diamine]
< 1000 nM | CC(C)(C)CN[C@H]1CCc2ccc(Nc3nc(N)n(-c4cc5c(nn4)-c4ccccc4CCC5)n3)cc2CC1 [Compound 34, 1-(6,7-dihydro-5H-benzo[6,7]cyclohepta[1,2-c]pyridazin-3-yl)-N^3-((7S)-7-((2,2-dimethylpropyl)amino)-6,7,8,9-tetrahydro-5H-benzo[7]annulene-2-yl)-1H-1,2,4-triazole-3,5-diamine]
< 1000 nM | CCCN[C@H]1CCc2ccc(Nc3nc(N)n(-c4cc5c(nn4)-c4ccccc4CCC5)n3)cc2CC1 [Compound 18, 1-(6,7-dihydro-5H-benzo[6,7]cyclohepta[1,2-c]pyridazin-3-yl)-N^3-((7S)-7-((propyl)amino)-6,7,8,9-tetrahydro-5H-benzo[7]annulene-2-yl)-1H-1,2,4-triazole-3,5-diamine]
< 1000 nM | CCN(CC)[C@H]1CCc2ccc(Nc3nc(N)n(-c4cc5c(nn4)-c4ccccc4CCC5)n3)cc2CC1 [Compound 20, 1-(6,7-dihydro-5H-benzo[6,7]cyclohepta[1,2-c]pyridazin-3-yl)-N^3-((7S)-7-(diethylamino)-6,7,8,9-tetrahydro-5H-benzo[7]annulene-2-yl)-1H-1,2,4-triazole-3,5-diamine]
< 1000 nM | CC(=O)NC1CCc2ccc(Nc3nc(N)n(-c4cc5c(nn4)-c4ccccc4CCC5)n3)cc2CC1 (stereo not drawn) [Compound 1, 1-(6,7-dihydro-5H-benzo[6,7]cyclohepta[1,2-c]pyridazin-3-yl)-N^3-(7-(acetamido)-6,7,8,9-tetrahydro-5H-benzo[7]annulene-2-yl)-1H-1,2,4-triazole-3,5-diamine]
< 1000 nM | Nc1nc(Nc2ccc3c(c2)CC[C@@H](NCC2CCCCC2)CC3)nn1-c1cc2c(nn1)-c1ccccc1CCC2 [Compound 26, 1-(6,7-dihydro-5H-benzo[6,7]cyclohepta[1,2-c]pyridazin-3-yl)-N^3-((7S)-7-((cyclohexylmethyl)amino)-6,7,8,9-tetrahydro-5H-benzo[7]annulene-2-yl)-1H-1,2,4-triazole-3,5-diamine]
1000 to 10000 nM | Nc1nc(Nc2ccc3c(c2)CC[C@@H](N(CC2CC4C=CC2C4)CC2CC4C=CC2C4)CC3)nn1-c1cc2c(nn1)-c1ccccc1CCC2 (stereo partly drawn) [Compound 37, 1-(6,7-dihydro-5H-benzo[6,7]cyclohepta[1,2-c]pyridazin-3-yl)-N^3-((7S)-7-(di(bicyclo[2.2.1]hept-2-en-5-ylmethyl)amino)-6,7,8,9-tetrahydro-5H-benzo[7]annulene-2-yl)-1H-1,2,4-triazole-3,5-diamine]
< 1000 nM | Nc1nc(Nc2ccc3c(c2)CC[C@@H](N(CC2CC2)CC2CC2)CC3)nn1-c1cc2c(nn1)-c1ccccc1CCC2 [Compound 16, 1-(6,7-dihydro-5H-benzo[6,7]cyclohepta[1,2-c]pyridazin-3-yl)-N^3-((7s)-7-(di(cyclopropylmethyl)amino)-6,7,8,9-tetrahydro-5H-benzo[7]annulene-2-yl)-1H-1,2,4-triazole-3,5-diamine]
< 1000 nM | Nc1nc(Nc2ccc3c(c2)CC[C@@H](N(CC2CC2)CC2CC2)CC3)nn1-c1cc2c(nn1)-c1cccnc1CCC2 [Compound 50, 1-(6,7-dihydro-5H-pyrido[2′,3′:6,7]cyclohepta[1,2-c]pyridazin-3-yl)-N^3-((7S)-7-(di(cyclopropylmethyl)amino)-6,7,8,9-tetrahydro-5H-benzo[7]annulene-2-yl)-1H-1,2,4-triazole-3,5-diamine]
